Key:
Format in all cases: functional, cell-based
[1] = Cytotoxicity against mouse P388D1 cells by calcein AM/[…] fluorometric detection
[2] = test system: MCF7; assay: Cytotoxicity against human MCF7 cells by calcein AM/[…] fluorometric detection
[3] = test system: HT-29; assay: Cytotoxicity against human HT29 cells by calcein AM/[…] fluorometric detection
[4] = test system: A549; assay: Cytotoxicity against human A549 cells by calcein AM/[…] fluorometric detection
[5] = test system: DU-145; assay: Cytotoxicity against human Du145 cells by calcein AM/[…] fluorometric detection
[6] = test system: HCT-15; assay: Cytotoxicity against human HCT15 cells by calcein AM/[…] fluorometric detection

| Compound | EC50 [1] [nM] | EC50 [2] [nM] | EC50 [3] [nM] | EC50 [4] [nM] | EC50 [5] [nM] | EC50 [6] [nM] |
| --- | --- | --- | --- | --- | --- | --- |
| C/C=C/C=C/c1cc2cc3c(c(O)c2c(=O)[nH]1)[C@@]1(CC3)C(=O)C(=O)c2c(c(O)c3c(O)c(OC)cc(O)c3c2O)C1=O [FDM E] | 170 | 7300 | 3600 | 4100 | 8100 | 4000 |
| C/C=C/C=C/c1cc2cc3c(c(O)c2c(=O)[nH]1)[C@@]1(CC3)C(=O)c2c(O)c3c(c(O)c2C1=O)C(=O)C(OC)=CC3=O [FDM A] | 50 | 360 | 570 | 1800 | 2700 | 2400 |
